Assay results as given in EP0381913A1, “Benzohydroxamic-acid derivatives” (SANDOZ AG, priority 1988, dated 1990).

Tested on: weeds
Experiment: greenhouse tests after either or both pre- and post-emergence application
Assay type: in vivo
Details: application rate corresponding to 0.25 kg/ha
Experimental: In pre-emergence testing, small plastic greenhouse pots filled with dry soil are seeded with the various weed seeds. Twenty-four hours or less after the seeding, the pots are sprayed with water until the soil is wet and the test compounds formulated as aqueous emulsions of acetone solutions containing emulsifiers are sprayed at the indicated concentrations emulsifiers are sprayed on the surface of the soil. After spraying, the soil containers are placed in the greenhouse and provided with supplementary heat as required and daily or more frequent watering. The plants are maintained under these conditions for a period of from 14 to 21 days, at which time the conditions of the plants and the degree of injury to the plants is rated.
After spraying, the plants are placed in a greenhouse and watered daily or more frequently. Water is not applied to the foliage of the treated plants. The severity of the injury is determined 21 days after treatment and is rated.

SMILES: COC(=O)CON(C(C)=O)C(=O)c1c(Cl)ccc(Cl)c1OC [Compound 1.12, Methyl N-acetyl-N-(3,6-dichloro-2methoxy)benzoylaminooxyacetate]
- control of weeds: substantial control of weeds
